# Test results taken from article PMC5049785, “Characterization of Novel Antimalarial Compound ACT-451840: Preclinical Assessment of Activity and Dose–Efficacy Modeling” (PLoS Medicine, 2016).
# “Also recorded” adds a separate entry of the source. Where two headings read alike, the source gives them in different places.
# What was measured:
# [1] = Reverse mutation test in vitro
# [2] = system: P. falciparum TM90C2A (Thailand); assay: [3H]-hypoxanthine incorporation assay, TM90C2A; format: cell-based, Plasmodium falciparum; conditions: read-out: 50% inhibitory concentration (IC50), resistance CQ, PYR, MFQ, CYC, mean ± SD
# [3] = system: P. falciparum NF54 female gametocytes; assay: P. falciparum dual gamete formation assay, female; format: cell-based, Plasmodium falciparum; conditions: up to a concentration of 20 μM, 24 h incubation
# Protocol: Mature P. falciparum NF54 gametocytes were cultured at Imperial College London (London, United Kingdom), as previously described. […] Male gamete formation was quantified by computer-aided automated identification and counting of exflagellation centers. Female gamete formation was visualized by live immunofluorescence with a Cy3-conjugated antibody specific for Pfs25—a female gamete expressed surface protein. […] IC50 values were calculated using GraphPad Prism version 6 using the logarithmic versus normalized response (variable slope) function (Graphpad Software, San Diego, US).
# [4] = Pharmacokinetic study in healthy mice; format: in vivo, female NMRI mice
# Protocol: Female NMRI mice were purchased from Harlan (Horst, The Netherlands) by Actelion Pharmaceuticals. ACT-451840 was formulated as a solution in corn oil and dosed via oral gavage at 10, 100, and 300 mg/kg. Serial blood samples were collected at 0.5, 2, 4, and 8 h after dosing from two mice and after 1, 3, 6, and 24 h from two other mice, creating composite PK profiles from, in total, four mice per dose. Blood samples were analyzed using liquid chromatography coupled to tandem mass spectrometry (LC-MS/MS) after protein precipitation. PK parameters were estimated using non-compartmental analysis from the composite profiles.
# [5] = system: Cam3.II^C580Y parasites; assay: microbe, parasite or virus in culture; format: cell-based, P. falciparum
# Protocol: (§1) Parasites were cultured at Columbia University Medical Center (New York, USA) as previously described (1). Cam3.II and V1/S parasites, which had been genetically engineered to express K13 wild-type or K13 C580Y were seeded in a 96-well plate at 0.2% parasitemia and 1% hematocrit (2). […] Parasites were then stained with SYBR Green I (Invitrogen) and MitoTracker Deep Red (ThermoFisher Scientific) for 20 minutes at 37 °C (3). Stained parasites were detected using a BD Accuri 6 Flow Cytometer, and analyzed using FlowJo Software. IC50 values were determined by nonlinear regression using GraphPad Prism 6.0. For statistical analyses, Student’s t-tests were performed, and significance was set at P < 0.05.
# (§2) Values indicate mean ± SEM, shown in nM. Significance determined by Student's t-test against parental lines.
# [6] = system: V1/S parasites (K13 wild-type); assay: microbe, parasite or virus in culture; format: cell-based, P. falciparum
# Protocol: as §1, §2
# [7] = system: Cam3.II^rev parasites (K13 wild-type); assay: microbe, parasite or virus in culture; format: cell-based, P. falciparum
# Protocol: as §1, §2
# [8] = system: V1/S^C580Y parasites; assay: microbe, parasite or virus in culture; format: cell-based, P. falciparum
# Protocol: as §1, §2
# [9] = Effect of formulation and food on oral pharmacokinetics in dogs; format: in vivo; conditions: for AUC increase versus suspension formulation / Cmax increase versus suspension formulation: fasted dogs; for AUC0-∞ geometric mean / Cmax geometric mean: dogs, 100 mg oral, fasted
# [10] = system: P. falciparum K1 (Thailand); assay: [3H]-hypoxanthine incorporation assay, K1; format: cell-based, Plasmodium falciparum; conditions: read-out: 50% inhibitory concentration (IC50); K1, resistance CQ, SUL, PYR, CYC; mean ± SD
# [11] = system: synchronous cultures of P. falciparum NF54; assay: In vitro time-, stage- and concentration-dependent effects; format: cell-based, Plasmodium falciparum; conditions: 6 or 24 h exposure
# Protocol: In vitro time-, stage-, and concentration-dependent effects were assessed using pyrimethamine as a stage-specific and slow-acting control, as described elsewhere.
# [12] = system: P. falciparum stage V gametocytes / oocysts in Anopheles stephensi; assay: Standard membrane feeding assay, indirect mode; format: cell-based, Plasmodium falciparum; conditions: 24 h pre-exposure of gametocytes
# Protocol: ACT-451840 was tested in the standard membrane feeding assay at TropIQ (Nijmegen, The Netherlands) in two modes, as previously described. In the direct mode, the compound was directly added to a bloodmeal containing mature stage V gametocytes that was fed to Anopheles stephensi mosquitoes. […] Seven days after the bloodmeal, the number of oocysts in the midgut was determined by microscopy for both modes. […] Vehicle control (0.1% DMSO) and positive control (10 μM dihydroartemisinin) were included. Twenty mosquitoes were dissected per sample, and oocyst load was analyzed per mosquito.
# [13] = single oral 10 mg/kg in corn oil
# [14] = single oral 100 mg/kg in corn oil
# [15] = single oral 300 mg/kg in corn oil
smiles,measurement,setting,value
CC(=O)N1CCN(c2ccc(CN(C(=O)/C=C/c3ccc(C(C)(C)C)cc3)[C@@H](Cc3ccccc3)C(=O)N3CCN(Cc4ccc(C#N)cc4)CC3)cc2)CC1 [ACT-451840],"genotoxicity, reverse mutation test",[1],not genotoxic
same,IC50,[2],1 ± 0.3 nM
same,effect on functional viability of female gametocytes (Pfs25 expression),[3],no activity; also recorded: no effect
same,AUC (ng/mL*h),[4]; [13],"1,780 ± 18%"
same,Cmax (ng/mL),[4]; [13],415 ± 20%
same,Tmax,[4]; [13],2.5 h
same,AUC (ng/mL*h),[4]; [14],"32,900 ± 36%"
same,Cmax (ng/mL),[4]; [14],"3,910 ± 20%"
same,Tmax,[4]; [14],6 h
same,AUC (ng/mL*h),[4]; [15],"60,900 ± 33%"
same,Cmax (ng/mL),[4]; [15],"7,010 ± 32%"
same,Tmax,[4]; [15],7 h
same,IC50 fold change,[5]; Cam3.II^C580Y versus Cam3.II^rev,1.1
same,IC50,"[5]; Cam3.II^C580Y, 72 h, mean ± SEM, read-out: IC50",2.3 ± 0.6 nM
same,IC50 fold change,[6]; V1/S (parental reference line),1.0
same,IC50,"[6]; V1/S, 72 h, mean ± SEM, read-out: IC50",0.21 ± 0.001 nM
same,IC50 fold change,[7]; Cam3.II^rev (parental reference line),1.0
same,IC50,"[7]; Cam3.II^rev, 72 h, mean ± SEM, read-out: IC50",2.1 ± 0.3 nM
same,IC50 fold change,[8]; V1/S^C580Y versus V1/S,0.9
same,IC50,"[8]; V1/S^C580Y, 72 h, mean ± SEM, read-out: IC50",0.19 ± 0.015 nM
same,AUC increase versus suspension formulation,[9]; Phosal 53 MCT solution,5.0 fold
same,Cmax increase versus suspension formulation,[9]; Phosal 53 MCT solution,4.3 fold
same,AUC increase versus suspension formulation,[9]; corn oil solution,7.8 fold
same,Cmax increase versus suspension formulation,[9]; corn oil solution,8.1 fold
same,AUC0-∞ geometric mean,[9]; Phosal 53 MCT solution,597 ng·h/mL
same,Cmax geometric mean,[9]; Phosal 53 MCT solution,112 ng/mL
same,AUC0-∞ geometric mean,[9]; corn oil solution,935 ng·h/mL
same,Cmax geometric mean,[9]; corn oil solution,213 ng/mL
same,IC50,[10],0.3 nM
same,stage specificity of growth reduction,[11],affected all asexual erythrocytic stages equally
same,IC50,"[12]; oocysts counted 7 d after bloodmeal, read-out: IC50 oocyst development in the mosquito (oocyst intensity)",30 nM
same,IC50,[12]; read-out: IC50 prevalence of infection (number of infected mosquitoes),104 nM
